In assay [1] the test system is purified mitochondria. Briefly: FITC-Vpr52-96 binding to purified mitochondria. The settings on record: 0.5 μM FITC-Vpr52-96. On the procedure:
Mitochondria were left unstained (insert in Co.) or exposed to the ΔΨm-insensitive mitochondrial dye MitoTracker® Green (75 nM), alone (MTG) or with 0.5 μM of FITC-Vpr52-96; green fluorescence), in combination with the ΔΨm-sensitive mitochondrial dye MitoTracker® Red (CMXRos; red Fluorescence) followed by cytofluorometric two-color analysis. Numbers indicate the percentage of mitochondria in each quadrant.
Mitochondria were incubated with the indicated inhibitors, and then exposed for 30 min at RT with 5 μM biotinylated Vpr52-96. Mitochondria were lysed either after incubation with biotinylated Vpr52-96 (upper panel) or lysed before (lower panel) with Tris/HCl as described in materials and methods. Biotinylated Vpr52-96 complexed with its mitochondrial ligands was retained on avidin-agarose and subjected to immunoblot detection of ANT.

For assay [2], the system named is purified mitochondria. Briefly: Respirometry of purified mitochondria, respiratory control. In kind it is biochemical. The settings on record: 1 μM peptide, 10 min. As to the method:
A. Oxygen consumption curves after addition of the indicated agents. Trace a: control mitochondria (no pretreatment). Trace b: mitochondria pretreated for 10 min with 1 μM Vpr52-96. Numbers along the traces are nmol of O2 consumed min^−1 mg^31 1 protein.
B. Respiratory control (RC) values calculated by dividing oxygen consumption in the presence of CCCP by that measured with oligomycin (determined as in A), 10 min after addition of 1 μM of Vpr-derived peptides (mean values of 3 determinations).

In assay [3] the target is T1, ANT (Rattus norvegicus, UniProt Q05962).
T1 construct: from tissue
Nature of the assay: Single channel recordings in planar lipid bilayers. The class given is biochemical. On the procedure:
FIG. 3 presents electrophysiological properties of Vpr52-96 and ANT in planar lipid bilayers. Current fluctuations of Vpr52-96 (80 nM, +150 mV), Vpr52-96(0.4 nM, +100 mV), ANT (1 nM, +110 mV) and Vpr52-96+ANT (0.4:1 nM, +115 mV) and associated histograms (right) of conductance levels are shown.
Current fluctuations of Vpr52-96 (80 nM, +150 mV), Vpr52-96 (0.4 nM, +100 mV), ANT (1 nM, +110 mV) and Vpr52-96+ANT (0.4:1 nM, 115 mV) after incorporation into synthetic membranes. Single channel recordings were performed using the “Tip-Dip” technique. The recordings shown are representative for at least three independent determinations.
B. Statistical analysis of conductances obtained in A. Results were expressed as current distributions at different voltages. Conductances (γ; in picosiemens, pS) are calculated by division of current by voltage.

The target of assay [4] is T1, ANT. In kind it is binding. To be noted: purified detergent-solubilized ANT. An excerpt: A Plasma surface resonance sensorgrams of the interaction of ANT with Vpr52-96, Vpr52-96[R73A, 80A] or an irrelevant control (Co).
B. Langmuir isotherm determined at different concentrations of ANT on sensorgrams corrected by substraction of the blank (sensorgrams obtained with Vpr52-96[R73A, 80A]).

The target in a further assay is T2, ANT-proteoliposomes (Rattus norvegicus, UniProt Q05962).
T2 construct: ANT is purified from rat heart and reconstituted in liposomes; from tissue; host or cells: rat heart (ANT)
T2 sequence (Q05962 1-298): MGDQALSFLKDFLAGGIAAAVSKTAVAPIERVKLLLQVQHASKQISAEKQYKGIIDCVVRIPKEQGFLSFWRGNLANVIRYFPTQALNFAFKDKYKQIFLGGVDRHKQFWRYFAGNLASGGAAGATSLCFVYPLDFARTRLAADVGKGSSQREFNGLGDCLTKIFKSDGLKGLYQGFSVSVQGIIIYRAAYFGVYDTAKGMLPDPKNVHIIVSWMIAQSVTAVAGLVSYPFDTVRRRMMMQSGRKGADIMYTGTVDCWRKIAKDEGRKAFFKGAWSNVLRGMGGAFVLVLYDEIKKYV
Nature of the assay: FITC-labeled Vpr52-96 binding onto ANT-liposomes and plain liposomes. As to the method:
A. Dose-response curve of FITC-labeled Vpr52-96 binding onto ANT-liposomes and plain liposomes.
B. Binding of FITC-Vpr52-96 (2 μM) to plain liposomes, ANT-proteoliposomes, in the presence or absence of BA (50 μM).

Assay [5] concerns purified mitochondria. Briefly: Inner versus outer mitochondrial membrane permeabilization (NADH oxidation, cytochrome c oxidation). The class given is biochemical. On the procedure:
A. Respirometry performed after addition of NADH and Vpr52-96 (1 μM). Numbers along the traces are nmol of O2 consumed min^−1 mg^−1 protein.
B. Kinetics of Vpr52-96 induced inner membrane permeabilization to NADH and outer membrane permeabilization to reduced cytochrome c. Oxygen consumption was determined in the presence of 2 mM NADH (full squares) as in A (traces C-D) and cytochrome c (15 μM) oxidation (open circles) was spectrofluorometrically measured, as described Rustin et al., 1994). The 100% value of cytochrome c oxidation was determined by addition of 2.5 mM laurylmaltoside.
Oxygen consumption of purified mitochondria was measured as in FIG. 5 after addition of succinate+CCCP or NADH, as indicated.

A further assay relates to isolated mitochondria. Briefly: Electron microscopy of isolated mitochondria (matrix swelling). The class given is biochemical. The settings on record: 3 μM Vpr52-96, 5 or 15 min. An excerpt: C. Ultrastructural effects of Vpr on isolated mitochondria.
For assay [6], the target named is T1, ANT. The settings on record: surface plasmon resonance, Jacotot et al. 2000; cited from earlier work. Background: In SPR one partner is held on a chip, and binding of the other changes the refractive index at the surface.

SMILES strings stand for the structures.

As to `CC[C@H](C)[C@H](NC(=O)[C@H](C)NC(=O)[C@H](CCC(=O)O)NC(=O)[C@@H](NC(=O)CNC(=O)[C@H](C)NC(=O)[C@H](Cc1c[nH]c2ccccc12)NC(=O)[C@@H](NC(=O)[C@@H](N)CC(=O)O)[C@@H](C)O)C(C)C)C(=O)N[C@H](C(=O)N[C@@H](CCCNC(=N)N)C(=O)N[C@H](C(=O)N[C@@H](CC(C)C)C(=O)N[C@@H](CCC(N)=O)C(=O)N[C@@H](CCC(N)=O)C(=O)N[C@@H](CC(C)C)C(=O)N[C@@H](CC(C)C)C(=O)N[C@@H](Cc1ccccc1)C(=O)N[C@H](C(=O)N[C@@H](Cc1c[nH]cn1)C(=O)N[C@@H](Cc1ccccc1)C(=O)N[C@@H](CCCNC(=N)N)C(=O)N[C@H](C(=O)NCC(=O)N[C@@H](CS)C(=O)N[C@@H](CCCNC(=N)N)C(=O)N[C@@H](Cc1c[nH]cn1)C(=O)N[C@@H](CO)C(=O)N[C@@H](CCCNC(=N)N)C(=O)N[C@H](C(=O)NCC(=O)N[C@H](C(=O)N[C@H](C(=O)N[C@@H](CCCNC(=N)N)C(=O)N[C@@H](CCC(N)=O)C(=O)N[C@@H](CCCNC(=N)N)C(=O)N[C@@H](CCCNC(=N)N)C(=O)N[C@@H](C)C(=O)N[C@@H](CCCNC(=N)N)C(=O)N[C@@H](CC(N)=O)C(=O)NCC(=O)N[C@@H](C)C(=O)N[C@@H](CO)C(=O)N[C@@H](CCCNC(=N)N)C(=O)N[C@@H](CO)C(=O)O)[C@@H](C)O)C(C)C)[C@@H](C)CC)[C@@H](C)CC)[C@@H](C)CC)[C@@H](C)CC)[C@@H](C)CC` [Vpr52-96], the “Vpr52-96 binding to mitochondria relative to ΔΨm loss” value with purified mitochondria [1] was “binds mitochondria before inducing ΔΨm loss”. Moreover, the “effect on respiratory control (RC)” value in the assay on purified mitochondria [2] is listed as “exhibited a gross deficiency in respiratory control (RC)”. Besides, the “respiratory control (RC) value” in the assay with purified mitochondria [2] (5.3 in control mitochondria) was found to be 1.1. Besides, the “conductance of channels formed by ANT and Vpr52-96” value at ANT [3] (Vpr52-96+ANT 0.4:1 nM) was determined as 190±2 pS. Moreover, at ANT [3] (as restated in Example 4), the “mean conductance of Vpr52-96-ANT channels without any further addition” value came to 190±2. Besides, on ANT [3] (high doses (80 nM), no ANT), the “conductance of channels formed by Vpr52-96 alone” value amounted to 55±2 pS. In addition, the “channel formation in planar lipid bilayers” value on ANT [3] (low doses (<1 nM)) was “incapable of forming channels, unless ANT was present”. Besides, the “binding of ANT to immobilized peptide (sensorgram)” value at ANT [4] was “exhibits an increase of binding as a function of time and a positive signal at the start of the dissociation phase”. Moreover, the “Vpr52-96 binding to membranes, ANT liposomes versus protein-free liposomes” value on ANT-proteoliposomes is reported as “greatly facilitated in liposomes in which ANT has been reconstituted as compared to protein-free liposomes”. Moreover, the “order of inner and outer MMP” value in the assay with purified mitochondria [5] was “causes inner MMP well before OM becomes permeable to exogenous cytochrome c”. Besides, the “time to maximal NADH oxidation” value in the assay on purified mitochondria [5] (Vpr52-96 1 μM, 2 mM NADH) was found to be 10 min. In addition, the “ultrastructural effect on mitochondria” value in the assay on isolated mitochondria is “exhibited matrix swelling before OM rupture became apparent”. Also, the “affinity of Vpr C-terminus for purified ANT” value on ANT [6] is “high affinity in the nanomolar range”.

The record behind these values is US20040072146A1, “Mechanism of mitochondrial membrane permeabilization by HIV-1 Vpr, mimetics of Vpr and methods of screening active molecules having the ability to alter and/or prevent and/or mimic the interaction of Vpr with ANT” (priority 2000, published 2004).
